In patent US10329309B2, “3-(3H-imidazo[4,5-B]pyridin-2-yl)-1H-pyrazolo[4,3-B]pyridines and therapeutic uses thereof” (Samumed, LLC, priority 2015, dated 2019):

Columns and labels:
Assay type in all cases: cell-based
IL-6 (THP-1 cells) = experiment: Inhibition of IL-6 in LPS-stimulated THP-1 monocytes (HTRF); conditions: Homo sapiens; for EC50: LPS 500 ng/mL, IL-6 by HTRF; for inhibition at 10 µM: LPS stimulated, IL-6, at 10 μM, read-out: percent inhibition at 10 μM (given for EC50 of >10 μM)
Outline: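 IL-6 release was read as the HTRF 665/620 nm ratio after 22 h of 500 ng/mL LPS at 37 °C. Before stimulation, THP-1 cells kept 24 h in 1% FBS were exposed 2 h to a 10-point 1:3 compound series starting at 10 μM, in 0.1% DMSO. Four-parameter EC50s came from DMSO-normalized duplicates, with % inhibition at 10 μM reported beyond 10 μM.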

SW480 colon cancer cells = experiment: Cell viability assay (CellTiter-Blue), four days; conditions: Homo sapiens, 96 h; for EC50: CellTiter-Blue cell viability; for inhibition at 10 µM: read-out: percent inhibition at 10 μM (given for EC50 of >10 μM)
Outline: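 Resazurin reduction (Ex 560/Em 590 nm, ~3 h reagent incubation) served as the viability read-out after SW480 cells were treated for four days at 37 °C. Doses ran from 10 μM down to 0.0045 μM in eight 1:3 steps. Curves fitted non-linearly for EC50, else % inhibition at 10 μM reported.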

[1] = test system: primary human mesenchymal stem cells (hMSCs); experiment: Induction of chondrogenesis in primary human mesenchymal stem cells (nodule imaging, Rhodamine B/Nile Red); conditions: hMSC chondrogenesis; for Emax: TGF-β3 as positive control, read-out: Max. Activity as % TGF-β3 activity; for EC50: concentration required to induce 50% levels of chondrogenesis vs TGF-β3, read-out: Conc (nM) of 50% TGF-β3 activity
Outline: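 hMSCs (passage 3–6) in incomplete chondrogenic induction medium were dosed at 2700–10 nM (96-well, 6-point) or 5000–2.2 nM (384-well, 8-point), 0.03% DMSO final, for 6 days at 37° C. Fixed nodules stained with Rhodamine B/Nile Red were imaged; nodule area normalized to DMSO wells gave EC50, maximum activity and dose at maximum, with TGF-β3 (10 ng/mL) as positive control.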

EC50 (IL-6 (THP-1 cells)) [nM]	EC50 (SW480 colon cancer cells) [nM]	EC50 [1] [nM]	Compound	inhibition at 10 µM (IL-6 (THP-1 cells)) [%]	inhibition at 10 µM (SW480 colon cancer cells) [%]	Emax [1] [%]
> 10000	> 10000	7	CN(C)CC(=O)Nc1cncc(-c2ccc3[nH]nc(-c4nc5c(-c6cccc(F)c6)ccnc5[nH]4)c3n2)c1 [Compound 969, 2-(dimethylamino)-N-(5-(3-(7-(3-fluorophenyl)-3H-imidazo[4,5-b]pyridin-2-yl)-1H-pyrazolo[4,3-b]pyridin-5-yl)pyridin-3-yl)acetamide]	26.3	27.7	72
4780	1160	30	CN(C)Cc1cncc(-c2ccc3[nH]nc(-c4nc5c(-c6cccs6)ccnc5[nH]4)c3n2)c1 [Compound 349, N,N-dimethyl-1-(5-(3-(7-(thiophen-2-yl)-3H-imidazo[4,5-b]pyridin-2-yl)-1H-pyrazolo[4,3-b]pyridin-5-yl)pyridin-3-yl)methanamine]	–	–	108
> 10000	> 10000	30	CC(C)(C)C(=O)Nc1cncc(-c2ccc3[nH]nc(-c4nc5c(-c6ccc(Cl)s6)ccnc5[nH]4)c3n2)c1 [Compound 1043, N-(5-(3-(7-(5-chlorothiophen-2-yl)-3H-imidazo[4,5-b]pyridin-2-yl)-1H-pyrazolo [4,3-b]pyridin-5-yl)pyridin-3-yl)pivalamide]	7.6	14.5	65
9910	2640	–	CCCC(=O)Nc1cncc(-c2ccc3[nH]nc(-c4nc5c(-c6ccsc6)ccnc5[nH]4)c3n2)c1 [Compound 297, N-(5-(3-(7-(thiophen-3-yl)-3H-imidazo[4,5-b]pyridin-2-yl)-1H-pyrazolo[4,3-b]pyridin-5-yl)pyridin-3-yl)butyramide]	–	–	40
